Values of other authors as cited in publication PMC7094870 (ACS chemical biology, 2020).

Test system: platinum resistant ovarian cancer and non-small cell lung cancer
Settings: patients; cited from earlier work

SMILES: COc1ccc(C[C@H]2NC(=O)/C=C/C[C@@H]([C@H](C)[C@H]3O[C@@H]3c3ccccc3)OC(=O)[C@H](CC(C)C)OC(=O)C(C)(C)CNC2=O)cc1Cl [cryptophycin-52]
- dose limiting toxicity in clinical trials: dose limiting peripheral neuropathy
